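Tested at 5 concentrations; 48 h exposure; 96-well plates; endpoints linearly interpolated, else capped at highest concentration. Here, GI50 denotes the concentration required for 50% inhibition of growth. TGI: concentration producing complete growth inhibition.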

Data on 8 compounds can be found in PubChem BioAssay (NCI).

Among the test systems are OVCAR-8 ovarian; OVCAR-4 ovarian; HCC-2998 colon; BT-549 breast; MALME-3M melanoma; MDA-MB-231 breast; NCI-H23 lung; UACC-62 melanoma; SN12C renal; NCI-H226 lung.
Experiment in all cases: NCI-60 cell line screen, 48 h

As for `Nc1nc2ccc([C@@H]3Nc4ccc5[nH]ncc5c4[C@H]4[C@H]5CCC(C5)[C@H]43)cc2s1`, the GI50 with OVCAR-8 ovarian was 2.35 µM; in the test with OVCAR-4 ovarian, 2.2 µM; in the test with HCC-2998 colon it was 1.75 µM; in the test on BT-549 breast, 1.25 µM; in the test with MALME-3M melanoma, 0.968 µM; in the test on MDA-MB-231 breast it was 1.29 µM. The GI50 with NCI-H23 lung is 1.58 µM; with UACC-62 melanoma, 1.51 µM; with SN12C renal, 1.53 µM; in the test with NCI-H226 lung, 1.91 µM. Further, the TGI in the test with OVCAR-8 ovarian was 16.7 µM; with OVCAR-4 ovarian, 6.05 µM; in the test with HCC-2998 colon, 3.76 µM; in the test on BT-549 breast, 5.25 µM; with MALME-3M melanoma, 2.6 µM; in the test on MDA-MB-231 breast, 11.6 µM. For the same compound, the TGI with NCI-H23 lung came out at 3.72 µM; in the test with UACC-62 melanoma, 3.05 µM; in the test on SN12C renal it was 4.12 µM; in the test with NCI-H226 lung it was 5.54 µM.

With `COc1ccc(C2NCCc3c2[nH]c2ccccc32)cc1CN1CCN(c2ccc(F)cc2)CC1` (stereo not given), the GI50 is 1.89 µM in the test with OVCAR-8 ovarian; 2.28 µM with OVCAR-4 ovarian; 1.61 µM with HCC-2998 colon; 7.55 µM with BT-549 breast; 1.88 µM in the test with MALME-3M melanoma; 1.4 µM in the test with MDA-MB-231 breast. Further, the GI50 in the test with NCI-H23 lung is 4.77 µM; in the test with UACC-62 melanoma, 1.8 µM; in the test on SN12C renal, 3.47 µM; with NCI-H226 lung, 13 µM. Moreover, the TGI in the test with OVCAR-8 ovarian was found to be 3.95 µM; in the test on OVCAR-4 ovarian, 7.22 µM; in the test with HCC-2998 colon, 3.33 µM; in the test on BT-549 breast, 20 µM; in the test with MALME-3M melanoma, 3.49 µM; in the test on MDA-MB-231 breast, 3.36 µM. Moreover, the TGI was 17 µM with NCI-H23 lung, 3.32 µM in the test with UACC-62 melanoma, 15.5 µM in the test on SN12C renal and 35.1 µM with NCI-H226 lung.

`O=C1C=CC(=O)C1(Br)Br`: the TGI in the test on OVCAR-8 ovarian is 24.1 µM; in the test with OVCAR-4 ovarian it was 33.2 µM; in the test on HCC-2998 colon, 31.2 µM; in the test with BT-549 breast, 24.9 µM; in the test on MALME-3M melanoma, 41.5 µM; in the test on MDA-MB-231 breast it was 23.1 µM. Also, the TGI in the test with NCI-H23 lung was 39.9 µM; in the test on UACC-62 melanoma, 25.3 µM; with SN12C renal it was 21.4 µM; in the test with NCI-H226 lung, 38.2 µM.

With `Cc1ccc(S(=O)(=O)Oc2ccc3c4c(c(=O)oc3c2)CCCCC4)cc1`, the GI50 in the test with OVCAR-8 ovarian was greater than 100 µM; in the test on OVCAR-4 ovarian it was 7.11 µM; with HCC-2998 colon, greater than 100 µM; with BT-549 breast it was 7.1 µM; in the test on MALME-3M melanoma it was greater than 100 µM; in the test on MDA-MB-231 breast, greater than 100 µM. The GI50 is 8 µM in the test with NCI-H23 lung, 5.72 µM with UACC-62 melanoma, greater than 100 µM in the test on SN12C renal and 7.5 µM in the test on NCI-H226 lung. Moreover, the TGI in the test with OVCAR-8 ovarian, with OVCAR-4 ovarian, with HCC-2998 colon, in the test on BT-549 breast, in the test on MALME-3M melanoma and in the test with MDA-MB-231 breast was greater than 100 µM in each case. For the same compound, the TGI with NCI-H23 lung, with UACC-62 melanoma, with SN12C renal and with NCI-H226 lung was greater than 100 µM in each case.

Turning to `CCCCCCCCOc1ccc(/C=N/Nc2cc(C)nc3ccc(Cl)cc23)cc1`, the GI50 was 2.14 µM in the test with OVCAR-8 ovarian; 1.82 µM with OVCAR-4 ovarian; 2.03 µM with HCC-2998 colon; 14.2 µM in the test with BT-549 breast; 1.85 µM in the test on MALME-3M melanoma; 1.81 µM in the test on MDA-MB-231 breast. Besides, the GI50 was 1.9 µM in the test on NCI-H23 lung, 1.87 µM in the test with UACC-62 melanoma, 1.78 µM with SN12C renal and 1.7 µM in the test with NCI-H226 lung. Also, the TGI with OVCAR-8 ovarian stood at 4.84 µM; with OVCAR-4 ovarian, 3.55 µM; in the test on HCC-2998 colon it was 3.59 µM; with BT-549 breast, 31.4 µM; in the test with MALME-3M melanoma, 3.36 µM; in the test on MDA-MB-231 breast it was 3.47 µM. Also, the TGI in the test on NCI-H23 lung was determined as 3.84 µM; in the test with UACC-62 melanoma, 3.49 µM; in the test with SN12C renal it was 3.35 µM; with NCI-H226 lung, 3.62 µM.

Regarding `COc1cc2c3c(n(CCCN)c(=O)c2cc1OC)-c1ccc(F)cc1C3=O`, the GI50 in the test on OVCAR-8 ovarian was 3.07 µM; in the test with OVCAR-4 ovarian, 6.04 µM; in the test with HCC-2998 colon, 2.67 µM; with BT-549 breast it was 3.81 µM; in the test with MALME-3M melanoma, 9.22 µM; with MDA-MB-231 breast it was 12.8 µM. Besides, the GI50 in the test on NCI-H23 lung was 1.65 µM; with UACC-62 melanoma, 0.925 µM; in the test with SN12C renal, 4.29 µM; in the test on NCI-H226 lung, 7.87 µM. Also, the TGI in the test on OVCAR-8 ovarian is 11.3 µM; in the test on OVCAR-4 ovarian it was 21.2 µM; in the test on HCC-2998 colon, 12.6 µM; in the test on BT-549 breast, 14.4 µM; in the test on MALME-3M melanoma it was 28.5 µM; in the test on MDA-MB-231 breast, 26.3 µM. The TGI with NCI-H23 lung amounted to 9.39 µM; with UACC-62 melanoma it was 5.76 µM; in the test on SN12C renal it was 17.4 µM; with NCI-H226 lung, 27.2 µM.

As for `N#CC1C(=N)Cc2ccccc2-c2ccccc21` (stereo not given), the GI50 is 5.81 µM in the test on OVCAR-8 ovarian; 18 µM in the test on OVCAR-4 ovarian; 9.96 µM in the test with HCC-2998 colon; 8.64 µM with BT-549 breast; 4.2 µM in the test with MALME-3M melanoma; 8.88 µM with MDA-MB-231 breast. In addition, the GI50 with NCI-H23 lung is 11.2 µM; in the test on UACC-62 melanoma, 3.83 µM; with SN12C renal, 5.55 µM; in the test on NCI-H226 lung, 11.4 µM. The TGI in the test with OVCAR-8 ovarian is 41.1 µM; with OVCAR-4 ovarian, greater than 100 µM; in the test on HCC-2998 colon, 26 µM; with BT-549 breast it was 38.7 µM; in the test on MALME-3M melanoma it was 27.4 µM; in the test with MDA-MB-231 breast, 35 µM. The TGI in the test on NCI-H23 lung was 68.8 µM; with UACC-62 melanoma it was 17.1 µM; in the test with SN12C renal it was 38.8 µM; with NCI-H226 lung, greater than 100 µM.

`O=C1c2ccccc2S(=O)(=O)N1CSC(=S)N1CCCC1`: the GI50 in the test on OVCAR-8 ovarian was greater than 100 µM; in the test on OVCAR-4 ovarian it was greater than 51.7 µM; in the test with HCC-2998 colon it was greater than 53.4 µM; in the test on BT-549 breast, greater than 100 µM; with MALME-3M melanoma, greater than 100 µM; with MDA-MB-231 breast, greater than 100 µM. Besides, the GI50 in the test on NCI-H23 lung is greater than 78.6 µM; in the test on UACC-62 melanoma, greater than 75.7 µM; in the test with SN12C renal it was greater than 100 µM; in the test with NCI-H226 lung it was greater than 100 µM. Further, the TGI in the test on OVCAR-8 ovarian, with OVCAR-4 ovarian, in the test with HCC-2998 colon, in the test with BT-549 breast, in the test on MALME-3M melanoma and in the test on MDA-MB-231 breast was greater than 100 µM throughout. In addition, the TGI in the test on NCI-H23 lung, with UACC-62 melanoma, with SN12C renal and in the test with NCI-H226 lung was greater than 100 µM in each case.
